Measured values: patent US20240327411A1, “SIRT6 ACTIVATORS” (The Board of Regents of The University of Texas System, priority 2022, published 2024)
“And” between values parts separate entries of the source, which are not always exact repeats. Equal entries are not always repeated. “Also recorded” adds a separate entry of the source.

Key:
[1] = target: T1, Sirt6 (Homo sapiens, UniProt Q8N6T7); conditions: literature value, cited from earlier work
[2] = system: BV2 cells; experiment: LPS-induced inflammatory gene mRNA expression in BV2 cells, q-PCR; format: cell-based, murine; conditions: for LPS-induced expression of IL-1β, IL-6, MCP-1, and TNFα / LPS-induced IL-1β, IL-6, and MCP-1 response / LPS-induced iNOS and CXCL10 expression / VCAM-1 induction / ICAM-1 induction: BV2 cells, 100 ng/mL LPS 6 hours, mRNA; for LPS-induced expression of IL-1β, IL-6, MCP-1, and TNFα: 30 μM pretreatment 30 minutes; for LPS-induced IL-1β, IL-6, and MCP-1 response / LPS-induced iNOS and CXCL10 expression / VCAM-1 induction / ICAM-1 induction: 30 μM; for LPS-induced proinflammatory cytokine/chemokine production: summary statement
[3] = target: T1, Sirt6; experiment: Nucleosome test: Sirt6-dependent H3K9 deacetylation of nucleosomes from HEK293T cells, Western blot; format: biochemical; conditions: 100 μM, 30° C., 60 minutes
Description: (§1) . Nucleosomes extracted from HEK293T cells were incubated with 100 μM of selected compounds or Vehicle at 30° C. for 60 minutes. Acetylated H3K9 and total H3 were detected by Western blot. The level of acetylated H3K9 was quantified by Image Lab software. FIGS. 5B and 5C show the cell viability which was assessed by MTT assay. R28 cells were treated with 30 μM or 100 μM compounds for 24 hours. Data were presented as mean±SEM. The experiment was repeated at least three times. ***p<0.001; ****p<0.0001.
Next, effects of selected compounds were explored for Sirt6-dependent deacetylation of complete nucleosomes extracted from human embryonic kidney (HEK) 293T cells, as nucleosomes represent more physiologically relevant substrates. […]. Briefly, HEK 293T cells in 100 mm dish were lysed with lysis buffer supplemented with PIC and PMSF for 30 min. After centrifugation for 10 min at 5000 rpm at 4° C., supernatant was removed and nuclei pellet was resuspended with digestion buffer supplemented with PIC and PMSF for 5 min at 37° C. Working enzymatic sharing cocktail was added to digest the chromatin, and EDTA was added after incubation to stop the digestion. Digested nucleosome was obtained in the supernatant after centrifugation for 10 min at 15000 rpm at 4° C. and the concentration was quantified by measuring the absorbance at […]. 20 μg nucleosome was incubated in solution (1× buffer, 0.5 μL recombinant Sirt6 and […] NAD, from SIRT6 ACTIVITY ASSAY KIT) for 60 min. To test the effects of the compounds on Sirt6 activity, corresponding compound or DMSO control was added before incubation. The reaction mixture was analyzed by Western blot.
Proteins were extracted from cells with PIERCE RIPA BUFFER (89901, ThermoFisher Scientific), and protein concentration was determined using PIERCE BCA PROTEIN ASSAY KIT (23225, ThermoFisher Scientific). Equal amounts of protein were loaded and separated by SDS-PAGE gel. Next, separated proteins were transferred onto Nitrocellulose Blotting Membranes (A29457237, GE Healthcare Life science), and then the membranes were blocked by 5% non-fat dry milk. After incubation with corresponding primary antibodies against H3K9ac, H3 and Sirt6 at a 1:1000 dilution, or α-tubulin at a 1:5000 dilution, goat anti-mouse or goat anti-rabbit secondary antibodies at a 1:5000 dilution were applied. Finally, membranes were incubated with enhanced chemiluminescent and protein bands were detected by CHEMIDOC imaging system (Bio-Rad). Image-Lab software was used to analyze the intensities of the protein bands.

[4] = system: retinal precursor cells (R28); experiment: MTT cell viability assay in R28 cells; format: cell-based; conditions: 24 hours
Description: as §1, with “FIGS. 5A-5C: FIGS. 5A-5C display the deacetylation effect and cytotoxicity of selected compounds. […] Nucleosomes” for “. Nucleosomes”
R28 cells were seeded in 96 well plates at a density of 1×10^4/well overnight, then treated with compounds for 24 h. MTT (MilliporeSigma) was added to cells (20 μL/well) and incubated for 3.5 h. After medium was removed, 100 μL dimethyl sulfoxide (DMSO) was added into each well. Absorbance was measured at 540 nm using a microplate reader.

[5] = system: SARS-CoV-2; experiment: microbe, parasite or virus in culture; format: cell-based
[6] = system: A549-hACE2 cells; experiment: Cell viability assay in A549-hACE2 cells; conditions: 50 μM, 48 h
[7] = target: T1, Sirt6; experiment: Sirt6-dependent peptide deacetylation, FLUOR DE LYS / Sirt6 fluorometric activity kit; format: biochemical; conditions: mean ± SD, at least two independent experiments; for Activation Fold 30 μM: compound at 30 μM; for Activation Fold 100 μM: compound at 100 μM
Description: (§2) Sirt6/Sirt1/Sirt2/Sirt3 activity was tested by Activity Assay Kits (Abcam) according to the manufacturer's instruction with minor modification. […] All experiments were conducted at room temperature.

[8] = system: H1299 cells; experiment: Acetylated H3K9 / total H3 in H1299 cells, Western blot; format: cell-based; conditions: 30 μM, 24 hours
[9] = target: T2, Sirt1 (Homo sapiens, UniProt Q96EB6); experiment: Sirt1 deacetylation activity assay kit; conditions: time course, FIG. 3
T2 sequence (Q96EB6 1-747): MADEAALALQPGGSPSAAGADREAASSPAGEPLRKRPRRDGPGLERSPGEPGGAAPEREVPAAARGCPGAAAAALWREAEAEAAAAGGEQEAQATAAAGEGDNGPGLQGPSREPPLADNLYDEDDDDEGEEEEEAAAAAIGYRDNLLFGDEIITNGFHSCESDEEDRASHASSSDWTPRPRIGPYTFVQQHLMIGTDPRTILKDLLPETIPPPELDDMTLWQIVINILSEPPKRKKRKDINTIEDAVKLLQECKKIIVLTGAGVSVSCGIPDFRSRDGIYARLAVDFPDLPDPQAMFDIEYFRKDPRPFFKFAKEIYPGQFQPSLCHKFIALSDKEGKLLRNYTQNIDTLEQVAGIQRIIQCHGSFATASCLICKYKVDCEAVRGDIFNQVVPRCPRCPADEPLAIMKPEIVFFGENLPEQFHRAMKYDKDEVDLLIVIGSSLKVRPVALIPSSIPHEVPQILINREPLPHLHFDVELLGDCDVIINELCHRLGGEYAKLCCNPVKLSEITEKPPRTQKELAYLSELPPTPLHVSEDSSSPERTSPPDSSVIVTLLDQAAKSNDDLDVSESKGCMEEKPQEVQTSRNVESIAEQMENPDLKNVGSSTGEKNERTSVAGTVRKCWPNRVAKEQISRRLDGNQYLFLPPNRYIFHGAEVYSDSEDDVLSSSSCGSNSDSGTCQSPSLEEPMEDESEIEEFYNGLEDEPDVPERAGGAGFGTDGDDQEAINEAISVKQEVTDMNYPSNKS
Description: as §2

[10] = system: PLC/PRF/5 cells; experiment: Acetylated H3K9 / total H3 in PLC/PRF/5 cells, Western blot; format: cell-based; conditions: 30 μM, 24 hours
[11] = system: H1299 cells; experiment: Colony formation assay in H1299 cells; format: cell-based; conditions: 30 μM, one week
[12] = system: PLC/PRF/5 cells; experiment: Colony formation assay in PLC/PRF/5 cells; format: cell-based; conditions: 30 μM, one week

T1 sequence (Q8N6T7 whole entry): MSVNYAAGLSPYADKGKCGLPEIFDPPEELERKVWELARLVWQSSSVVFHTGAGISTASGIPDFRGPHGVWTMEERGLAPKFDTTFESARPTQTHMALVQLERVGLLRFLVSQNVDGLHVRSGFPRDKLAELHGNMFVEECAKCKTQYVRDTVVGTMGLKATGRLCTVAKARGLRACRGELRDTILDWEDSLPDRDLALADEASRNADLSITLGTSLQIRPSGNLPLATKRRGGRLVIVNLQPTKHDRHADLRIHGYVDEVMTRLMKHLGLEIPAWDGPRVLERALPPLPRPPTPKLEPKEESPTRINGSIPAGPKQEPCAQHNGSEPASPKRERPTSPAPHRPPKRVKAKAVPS

SMILES	LPS-induced expression of IL-1β, IL-6, MCP-1, and TNFα [2]	LPS-induced IL-1β, IL-6, and MCP-1 response [2]	LPS-induced iNOS and CXCL10 expression [2]	LPS-induced proinflammatory cytokine/chemokine production [2]	acetylation of H3K9 in the nucleosome test [3]	toxicity on retinal precursor cells (R28) ([4]; 30 μM)	potency in inhibiting SARS-CoV-2 infection (in words) [5]	cytotoxicity at the highest tested concentration [6]	Activation Fold 30 μM [7] [fold]	Activation Fold 100 μM [7]	ICAM-1 induction [2]	also measured
CCCCCCCC/C=C\CCCCCCCC(=O)NCCO [Oleoylethanolamide]												maximum activation (Emax) of Sirt6 deacetylation [1]: 2.1 fold
OC1CN(CCN2CCN(c3ncccc3C3Nc4ccccc4-n4cccc43)CC2)C1 (stereo not shown) [Compound 46, 1-(2-(4-(3-(4,5-Dihydropyrrolo[1,2-a]quinoxalin-4-yl)pyridin-2-yl)piperazin-1-yl)ethyl)azetidin-3-ol]	strongly inhibited	almost reversed	significantly repressed	strongly repressed	significantly decreased the acetylation of H3K9	no obvious toxicity	micromolar potency	none of these compounds exhibited significant cytotoxicity	3.30 ± 0.11	6.30 ± 0.25 fold		VCAM-1 induction [2]: obviously inhibit
c1ccc2c(c1)NC(c1cccnc1N1CCN(CCN3CCCC3)CC1)c1cccn1-2 (stereo not shown) [Compound 47, 4-(2-(4-(2-(Pyrrolidin-1-yl)ethyl)piperazin-1-yl)pyridin-3-yl)-4,5-dihydropyrrolo[1,2-a]quinoxaline]	strongly inhibited	almost reversed	significantly repressed	strongly repressed	no effect	no obvious toxicity			4.80 ± 0.19	5.38 ± 0.29 fold	slight inhibition	VCAM-1 induction [2]: obviously inhibit
c1ccc2c(c1)NC(c1cccnc1N1CCN(CCn3ccnc3)CC1)c1cccn1-2 (stereo not shown) [Compound 50, 4-(2-(4-(2-(1H-Imidazol-1-yl)ethyl)piperazin-1-yl)pyridin-3-yl)-4,5-dihydropyrrolo[1,2-a]quinoxaline]	strongly inhibited	almost reversed	significantly repressed	strongly repressed	significantly decreased the acetylation of H3K9	no obvious toxicity			3.34 ± 0.19	6.29 ± 0.02 fold	slight inhibition	
COCCN1CCN(c2ncccc2C2Nc3ccccc3-n3cccc32)CC1 (stereo not shown) [Compound 36, 4-(2-(4-(2-Methoxyethyl)piperazin-1-yl)pyridin-3-yl)-4,5-dihydropyrrolo[1,2-a]quinoxaline]	strongly inhibited			strongly repressed	significantly decreased the acetylation of H3K9	no obvious toxicity	micromolar potency	none of these compounds exhibited significant cytotoxicity	3.17 ± 0.21	6.06 ± 0.13 fold		Sirt6 deacetylation of H3K9 (acetylated H3K9 to total H3) [8]: significantly activated Sirt6 to deacetylate H3K9; decrease of acetylated H3K9 when Sirt6 was knockdown by siRNA ([8]; Sirt6 siRNA): abolished; effect on Sirt1 deacetylation [9]: no significant effects; Sirt6 deacetylation of H3K9 (acetylated H3K9 to total H3) [10]: significantly activated Sirt6 to deacetylate H3K9; decrease of acetylated H3K9 when Sirt6 was knockdown by siRNA ([10]; Sirt6 siRNA): abolished; colony formation [11]: significantly inhibited; also recorded: about half; toxicity on retinal precursor cells (R28) ([4]; 100 μM): no obvious toxicity; colony formation [12]: significantly inhibited; also recorded: about half
O=C(O)c1ccc2c(c1)C(=O)N(c1ccc(N(C(=O)c3c(Cl)cc(Cl)cc3Cl)C(=O)c3c(Cl)cc(Cl)cc3Cl)c(Cl)c1)C2=O [CL5D]												Sirt6 activation at 3 μM ([1]; concentration of 3 μM): 4 fold
FC1(F)CCN(c2ncccc2C2Nc3ccccc3-n3cccc32)CC1 (stereo not shown) [Compound 25, 4-(2-(4,4-Difluoropiperidin-1-yl)pyridin-3-yl)-4,5-dihydropyrrolo[1,2-a]quinoxaline]										~2 fold and 1.54 ± 0.03 fold		
OCCN1CCN(c2ncccc2C2Nc3ccccc3-n3cccc32)CC1 (stereo not shown) [Compound 35, 2-(4-(3-(4,5-Dihydropyrrolo[1,2-a]quinoxalin-4-yl)pyridin-2-yl)piperazin-1-yl)ethan-1-ol]	strongly inhibited			strongly repressed	significantly decreased the acetylation of H3K9	no obvious toxicity	micromolar potency	none of these compounds exhibited significant cytotoxicity	2.92 ± 0.06	5.72 ± 0.69 fold	slight inhibition	Sirt6 deacetylation of H3K9 (acetylated H3K9 to total H3) [8]: no obvious influence; effect on Sirt1 deacetylation [9]: no significant effects; Sirt6 deacetylation of H3K9 (acetylated H3K9 to total H3) [10]: no obvious influence; colony formation [11]: only a slight inhibitory effect; toxicity on retinal precursor cells (R28) ([4]; 100 μM): no obvious toxicity; colony formation [12]: only a slight inhibitory effect
